Source: patent US20250108038A1 (priority 2023, published 2025)

What was measured:
CYP2B6 = biological target: T1, CYP2B6 (Homo sapiens, UniProt P20813); assay: in vitro; details: both, pH 7.4
T1 sequence (P20813 1-491): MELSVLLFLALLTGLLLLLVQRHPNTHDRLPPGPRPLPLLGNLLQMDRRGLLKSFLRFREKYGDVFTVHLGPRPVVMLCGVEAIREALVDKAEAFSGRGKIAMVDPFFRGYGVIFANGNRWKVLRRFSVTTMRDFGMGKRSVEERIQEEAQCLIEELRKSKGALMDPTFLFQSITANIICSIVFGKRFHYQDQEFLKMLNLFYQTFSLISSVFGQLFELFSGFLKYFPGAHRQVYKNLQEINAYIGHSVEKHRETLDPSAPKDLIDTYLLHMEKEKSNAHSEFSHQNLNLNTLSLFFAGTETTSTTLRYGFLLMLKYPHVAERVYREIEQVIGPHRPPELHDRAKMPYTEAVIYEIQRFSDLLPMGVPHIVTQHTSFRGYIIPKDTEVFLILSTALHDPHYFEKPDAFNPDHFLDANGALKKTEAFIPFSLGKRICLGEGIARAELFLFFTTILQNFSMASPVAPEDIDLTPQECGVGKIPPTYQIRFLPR

[1] = Stability in components of human blood; type: in vitro ADME; details: 0.5 mM, 37° C., 0-120 min
Description: FIG. 3A. […] Compound I-19 in components of human blood. Red blood cells and plasma were isolated from whole blood. […] Values represent mean+SEM of n=3 separate experiments.
FIG. 3B. Stability of Compound I-4 in components of human blood. Red blood cells and plasma were isolated from whole blood. […] Values represent mean+SEM of n=3 separate experiments.
Human and rat blood were centrifuged to separate out red blood cells at 1174×g for 15 min. The upper plasma level was aspirated with a micropipette and placed in a bleach solution for disposal. The RBC pellet was resuspended in sterile isotonic saline. The pellet was gently resuspended by rocking the tube. The sample was then centrifuged again to collect the RBC pellet and then resuspended and washed one more time following the same procedure. A total of three was done. Following the last wash and centrifugation, the RBCs were resuspended with PBS; and mixed by inversion. Aliquots of the resuspended and washed RBCs were then placed into 4 reaction tubes. These tubes were centrifuged to collect the RBCs. The fluid level was marked on each tube, then the supernatant was aspirated off and the cells resuspended with room temperature PBS pH 7.4 to the original mark. An aliquot of the RBC suspension was added to four sterile tubes containing PBS pH 7.4 at room temperature. […]

CYP2C8 = biological target: T2, CYP2C8 (Homo sapiens, UniProt P10632)
T2 sequence (P10632 1-490): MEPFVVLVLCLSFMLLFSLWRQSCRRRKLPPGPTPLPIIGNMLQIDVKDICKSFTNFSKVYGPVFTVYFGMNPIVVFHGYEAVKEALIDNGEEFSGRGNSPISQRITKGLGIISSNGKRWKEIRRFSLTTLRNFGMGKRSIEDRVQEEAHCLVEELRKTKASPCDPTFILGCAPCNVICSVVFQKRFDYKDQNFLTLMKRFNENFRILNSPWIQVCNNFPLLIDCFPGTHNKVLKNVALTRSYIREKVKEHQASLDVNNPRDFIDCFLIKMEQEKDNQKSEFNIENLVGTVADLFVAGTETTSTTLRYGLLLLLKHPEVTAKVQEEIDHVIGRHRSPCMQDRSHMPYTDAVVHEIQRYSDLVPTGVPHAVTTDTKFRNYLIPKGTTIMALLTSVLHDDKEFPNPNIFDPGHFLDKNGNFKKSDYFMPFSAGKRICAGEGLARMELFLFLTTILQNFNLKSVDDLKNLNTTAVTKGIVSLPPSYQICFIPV

SMILES	inhibition at 10 µM (CYP2B6)	% parent compound remaining ([1]; human red blood cells)	% parent compound remaining ([1]; human whole blood)	Inhibition at Highest Test Article Concentration (CYP2C8; 2C8, Amodiaquine, at 50 μM)	IC50 (CYP2C8; microsomes)
OC1(c2ccc(Cl)cc2)c2ccccc2C2=NCCN21 (centres unmarked) [Compound A, 5-(4-chlorophenyl)-2,3-dihydroimidazo[1,2-b]isoindol-5-ol, reference compound]	62%				
Clc1ccc(C2(OCC3OCCO3)c3ccccc3C3=NCCN32)cc1 (centres unmarked) [Compound I-19]		time-dependent decrease in the amount of parent compound present	time-dependent decrease in the amount of parent compound present	73.7 at 50 μM %	2380 nM
